Common to all, as to assay: Planktonic susceptibility (MIC/MBC), 96-well broth microdilution
Experiment [1] has as its system Klebsiella pneumoniae ATCC. The experiment is classed as cell-based. The settings on record: K. pneumonia; for MIC: planktonic, overnight 37°C in MHB. On the procedure:
(§1) All bacterial strains subjected to testing had been stored at −70°C prior to the experiment. The experiment commenced by streaking small amounts of the frozen bacterial samples onto Muller-Hinton agar (MHA) culture medium (BD Bacto, Oxoid, Basingstoke, UK Cat# X296B) and allowing for overnight incubation. Bacteria were re-cultured on MHA plates as required to confirm colony morphology and lack of contamination. Strains tested were P. aeruginosa ATCC 27853, E. coli ATCC 25922, Staphylococcus aureus ATCC 25923, MRSA ATCC 33591, S. epidermidis ATCC 12228, Klebsiella pneumoniae ATCC, P. mirabilis ATCC 35659, and 10 clinical isolates of MRSA from Foothills Hospital, Calgary, Canada. To prepare for susceptibility testing, a protocol modified from Lemire et al was used ([28]). MHB was swab-inoculated from MHA colonies and shake-incubated until turbid. Dilution of the broth with 0.9% saline was performed as necessary to match a 1.0 McFarland standard.
(§2) MIC and MBC assessments were conducted on all bacterial strains using 96-well microtiter plates. To prepare the wells for bacteria, serial dilutions of the antibacterial agents were carried out along the rows of two microtiter plates. The antibacterials were 2-fold diluted with Mueller-Hinton broth (MHB) in each column, reaching a volume of 75 µL. The 1.0 McFarland standard was diluted 15-fold in MHB, and 75 µL of inoculum was added to the wells treated with antibacterials, resulting in a total volume of 150 µL. The microtiter plates were covered and then shake-incubated overnight at 150 rpm and 37°C. MIC was determined based on visible bacterial growth. In cases of antibacterial opacity or ambiguous results, streaking of well cultures on MHA, overnight incubation, and subsequent comparison with controls were performed. MBC was determined by transferring 3 µL of culture from all MIC microtiter plate wells to 147 µL of Mueller-Hinton broth in fresh plates. These plates were shake-incubated overnight at 150 rpm and 37°C, and bacterial growth was visually inspected.

Experiment [2] concerns P. mirabilis ATCC 35659. The experiment is classed as cell-based. Particulars: Proteus mirabilis; for MBC: ATCC35659; for MIC: ATCC35659, planktonic, overnight 37°C in MHB. Here is the method: as §1, §2
Experiment [3] concerns MRSA ATCC 33591. The experiment is classed as cell-based, methicillin-resistant S. aureus. Particulars: Staphylococcus aureus, MRSA reference strain; for MIC: planktonic, overnight 37°C in MHB. Here is the method:
as §1
as §2, with “In cases of antibacterial opacity or ambiguous results, streaking of well cultures on MHA, overnight incubation, and subsequent comparison with controls were performed.” left out

The subject of experiment [4] is Staphylococcus aureus ATCC 25923. The experiment is classed as cell-based. Particulars: Staphylococcus aureus, ATCC25923, S. aureus; for MIC: planktonic, overnight 37°C in MHB. On the procedure:
as §1, §2

The values that follow come from publication PMC11237694, “Novel pentafluorosulfanyl-containing triclocarban analogs selectively kill Gram-positive bacteria” (Microbiology Spectrum, 2024).

In brackets after ≈: the same amount, converted by molar mass.

For `O=C(Nc1ccc(Cl)c(C(F)(F)F)c1)Nc1ccc2nnsc2c1` [A], the MBC in experiment [1] and in experiment [2] was above 5 mM throughout. The MIC in experiment [1] and in experiment [2] was above 5 mM in each case.

`O=C(Nc1ccc(Cl)c(Cl)c1)Nc1ccc2nnsc2c1` [B]: the minimal inhibitory concentration (MIC) in experiment [3] is 4.9 mM (≈ 1660 µg/mL); in experiment [1], above 5 mM; in experiment [4], 9.8 mM (≈ 3320 µg/mL); in experiment [2], above 5 mM. Besides, the MBC in experiment [1] and in experiment [2] was above 5 mM each time.

Consider `O=C(Nc1ccc2nnsc2c1)Nc1cccc(S(F)(F)(F)(F)F)c1Cl` [EBP-24, 3-(1,2,3-benzothiadiazol-6-yl)-1-(2-chloro-3-pentafluoro-λ^6-sulfanyl)urea], for which the MIC in experiment [3] is 0.15 mM (≈ 64.6 µg/mL); in experiment [1], above 5 mM; in experiment [4] it was 0.076 mM (≈ 32.7 µg/mL); in experiment [2], above 5 mM. Besides, the values for the minimum bactericidal concentration (MBC) in experiment [1], in experiment [4] and in experiment [2] were above 5 mM, 78 mM (≈ 33600 µg/mL) and above 5 mM, respectively.

As for `O=C(Nc1ccc(Cl)c(S(F)(F)(F)(F)F)c1)Nc1ccc2nnsc2c1` [EBP-25, 3-(1,2,3-benzothiadiazol-6-yl)-1-(4-chloro-3-pentafluoro-λ^6-sulfanyl)urea], the values for the MBC in experiment [1], in experiment [4] and in experiment [2] were above 5 mM, 78 mM (≈ 33600 µg/mL) and above 5 mM, respectively. In addition, the figures for the MIC in experiment [1], in experiment [4] and in experiment [2] were above 5 mM, 9.8 mM (≈ 4220 µg/mL) and above 5 mM, respectively.

Regarding `O=C(Nc1ccc(S(F)(F)(F)(F)F)cc1)Nc1ccc(S(F)(F)(F)(F)F)cc1` [EBP-33, 1,3-bis(4-pentafluoro-λ^6-sulfanyl)urea], the MBC in experiment [3] is 2.4 mM (≈ 1110 µg/mL); in experiment [1] it was above 5 mM; in experiment [4] it was 20 mM (≈ 9290 µg/mL); in experiment [2] it was above 5 mM. Besides, the MIC was 0.0048 mM (≈ 2.23 µg/mL) in experiment [3], above 5 mM in experiment [1], 0.019 mM (≈ 8.82 µg/mL) in experiment [4] and above 5 mM in experiment [2].

On to `O=C(Nc1cc(S(F)(F)(F)(F)F)ccc1Cl)Nc1cc(S(F)(F)(F)(F)F)ccc1Cl` [EBP-36, 1,3-bis(2-chloro-5-pentafluoro-λ^6-sulfanyl)urea], for which the MBC in experiment [3] is 9.8 mM (≈ 5230 µg/mL); in experiment [1], above 5 mM; in experiment [4], 78 mM (≈ 41600 µg/mL); in experiment [2], above 5 mM. Also, the MIC in experiment [3] was 0.61 mM (≈ 325 µg/mL); in experiment [1] it was above 5 mM; in experiment [4], 0.076 mM (≈ 40.5 µg/mL); in experiment [2], above 5 mM.

With `O=C(Nc1ccc(Cl)cc1)Nc1ccc(Cl)c(S(F)(F)(F)(F)F)c1` [EBP-41, 1-(4-chloro-3-(pentafluoro-λ^6-sulfanyl)phenyl)-3-(4-chlorophenyl)urea], the MBC is 1.2 mM (≈ 489 µg/mL) in experiment [3], above 5 mM in experiment [1], 1.2 mM (≈ 489 µg/mL) in experiment [4] and above 5 mM in experiment [2]. Moreover, the MIC in experiment [3] was 0.0095 mM (≈ 3.87 µg/mL); in experiment [1], above 5 mM; in experiment [4], 0.038 mM (≈ 15.5 µg/mL); in experiment [2], above 5 mM.

With `O=C(Nc1cccc(S(F)(F)(F)(F)F)c1)Nc1cccc(S(F)(F)(F)(F)F)c1` [EBP-53, 1,3-bis(3-(Pentafluoro-λ^6-sulfanyl)phenyl) urea], the MIC in experiment [3] was 1.2 mM (≈ 557 µg/mL); in experiment [1] it was above 5 mM; in experiment [4], 1.2 mM (≈ 557 µg/mL); in experiment [2], above 5 mM. Further, the MBC in experiment [1] and in experiment [2] was above 5 mM in each case.

`O=C(Nc1ccc(S(F)(F)(F)(F)F)cc1)Nc1cccc(S(F)(F)(F)(F)F)c1` [EBP-55, 1-(3-(pentafluoro-λ^6-sulfanyl)phenyl)-3-(4-(pentafluoro-λ^6-sulfanyl)phenyl)urea]: the MBC was 0.15 mM (≈ 69.7 µg/mL) in experiment [3], above 5 mM in experiment [1], 78 mM (≈ 36200 µg/mL) in experiment [4] and above 5 mM in experiment [2]. Further, the MIC in experiment [3] was 0.0048 mM (≈ 2.23 µg/mL); in experiment [1], above 5 mM; in experiment [4], 0.019 mM (≈ 8.82 µg/mL); in experiment [2] it was above 5 mM.

`O=C(Nc1ccc(Cl)c(S(F)(F)(F)(F)F)c1)Nc1ccc(Cl)c(S(F)(F)(F)(F)F)c1` [EBP-56, 1,3-bis(4-Chloro-3-(pentafluoro-λ^6-sulfanyl)phenyl) urea]: the MBC is 0.61 mM (≈ 325 µg/mL) in experiment [3], above 5 mM in experiment [1], 78 mM (≈ 41600 µg/mL) in experiment [4] and above 5 mM in experiment [2]. For the same molecule, the minimum inhibitory concentration (MIC) in experiment [3] was 0.3 mM (≈ 160 µg/mL); in experiment [1], above 5 mM; in experiment [4], 4.9 mM (≈ 2610 µg/mL); in experiment [2], above 5 mM.

For the molecule `O=C(Nc1ccc(Cl)cc1)Nc1cccc(S(F)(F)(F)(F)F)c1Cl` [EBP-58, 1-(2-Chloro-3-(pentafluoro-λ^6-sulfanyl)phenyl)-3-(4-chlorophenyl)urea], the MIC was 20 mM (≈ 8140 µg/mL) in experiment [3], above 5 mM in experiment [1] and above 5 mM in experiment [2]. Further, the MBC in experiment [1] and in experiment [2] was above 5 mM each time.

As to `O=C(Nc1ccc(S(F)(F)(F)(F)F)cc1)Nc1ccc2nnsc2c1` [EPB-21, 3-(1,2,3-benzothiadiazol-6-yl)-1-(4-pentafluoro-λ^6-sulfanyl)urea], the MBC in experiment [1] and in experiment [2] was above 5 mM each time. The minimum inhibitory concentration (MIC) in experiment [1] and in experiment [2] was above 5 mM each time.

In the case of `O=C(Nc1cccc(S(F)(F)(F)(F)F)c1)Nc1ccc2nnsc2c1` [EPB-22, 3-(1,2,3-benzothiadiazol-6-yl)-1-(3-pentafluoro-λ^6-sulfanyl)urea], the MBC in experiment [3] is 4.9 mM (≈ 1940 µg/mL); in experiment [1] it was above 5 mM; in experiment [4] it was 20 mM (≈ 7930 µg/mL); in experiment [2], above 5 mM. For the same molecule, the MIC is 0.61 mM (≈ 242 µg/mL) in experiment [3], above 5 mM in experiment [1], 0.61 mM (≈ 242 µg/mL) in experiment [4] and above 5 mM in experiment [2].

Take `O=C(Nc1ccc2nnsc2c1)Nc1cc(S(F)(F)(F)(F)F)ccc1Cl` [EPB-23, 3-(1,2,3-benzothiadiazol-6-yl)-1-(2-chloro-5-pentafluoro-λ^6-sulfanyl)urea]: the MBC was 39 mM (≈ 16800 µg/mL) in experiment [3], above 5 mM in experiment [1], 20 mM (≈ 8620 µg/mL) in experiment [4] and above 5 mM in experiment [2]. Further, the MIC in experiment [3] was 4.9 mM (≈ 2110 µg/mL); in experiment [1] it was above 5 mM; in experiment [4], 2.4 mM (≈ 1030 µg/mL); in experiment [2], above 5 mM.

In general, MBC refers to the smallest concentration meeting the test's criterion for killing. Low values mean more potent killing, high ones less potent killing. One may read the MIC as the least concentration at which growth counts as inhibited. Low readings indicate greater potency, high ones weaker potency.
